“Also recorded” adds a separate entry of the source.
Tests used:
APPs [1] = conditions: 10 mg/kg P.O. bid, 7 days; n = 4 mean ± S.D.
Description: (§1) The cells were washed twice with phosphate-buffered saline (PBS) at 37° C. and subsequently lysed and scraped in 1 ml ice-cold protein lysis buffer (20 mM Tris-HCl, pH7.4, 2 mM EGTA, 2 mM EDTA, […] leupeptin and […] aprotinin) at 4° C. […] Briefly, cells were homogenized 10× in 15 ml glass homogenizer with a tight-fitting pestle and centrifuged at 900×g for 10 min. The resulting supernatant was then centrifuged at 100,000×g for 60 min to produce a nucleus-free membrane fraction (pellet) and a cytosol fraction (supernatant) for Western blots. The 900×g nuclear pellet was suspended in the 2 ml lysis buffer containing 10% sucrose and 0.1% Triton X-100 and washed twice by centrifuging at 1000×g for 10 min, then resuspended in 1 ml of the same buffer without Triton X-100 for Western blots. The purity of the fractions was monitored by light microscopy. […] The samples were stored at -70° C. until analysis.
(§2) 15 μl of human plasma, 15 μl of rat plasma, CSF or 50 μg of rat brain protein were denatured with 35 μl of sample buffer at 95° C. for 4 min. Denatured proteins were separated by 10% SDS-polyacrylamide gel electrophoresis with a 50 μg or 20 μg protein load for each sample for APPs or PKC, respectively, and electrophoretically transferred from gel to nitrocellulose membrane. […] The immunoreactive bands were developed using enhanced chemilumenescence (ECL. Amersham Life Sci., Little Chalfont, UK), following extensive washing with the blocking buffer. The PKC bands were verified in each case by competitively blocking the signal with the peptide corresponding to each of PKCs. The bands were quantitated by scanning densitometry. Quantitative comparisons were made between samples processed simultaneously on one blot.
Male Sprague-Dawley rats (12 month) were obtained from Harlan-Sprague-Dawley, Inc. (Indianapolis, Ind.) and housed under controlled conditions of temperature humidity and light/dark cycle. […] Rat stomach and duodenum were collected for the quantitation of gastroduodenal lesions. […]

PKC = target: T1, PKC (Rattus norvegicus, UniProt P05696); assay: Protein kinase C activity assay (histone phosphorylation, partially purified rat brain PKC); assay type: biochemical; conditions: PMA stimulated; for concentration inhibiting PKC mediated histone phosphorylation: 2 min, 30° C.
T1 construct: Partially purified PKCα from rat brain; purchased Promega (Madison, Wis.); host or cells: rat brain (tissue enzyme, partially purified)
Description: The following were obtained from the Sigma Chemical Co. (St. […] Anti-PKCα antibody (affinity purified) and its C-terminal region peptide was obtained from Life Technologies (Gaithersburg, Md.). […] All other chemicals were of the highest available purity and were obtained from standard commercial sources. […] Following 2 min initial incubation at 30° C., kinase reactions were initiated by the addition of ^32 P-γ-ATP and enzyme and continued at 30° C. for 2 min. Control incubations contained all assay components except enzyme and ibuprofen. […] All samples were carried out in duplicate.

APPs (105 kDa) = APPs (105 kDa) in human blood; assay type: in vivo
Description: as §2
Food intake was restricted until 4 h post dose. […] Over the next 6 days, ibuprofen was administered as 800 mg t.i.d. and subjects were instructed to return on day 3 and 5 for a single blood draw. […] Serum samples were stoiced -20° C. prior to analysis.

PKCα = PKCα translocation in NIH 3T3 cells (subcellular fractionation, Western blot); assay type: cell-based; conditions: 10 μg/ml; for inhibition of PKCα translocation from cytosol to nuclear compartments: PMA 4 hours; for inhibition of PKCα translocation, racemate versus enantiomers: particularly 2 weeks of PMA
Description: (§3) NIH 3T3 cells (American Type Culture Collection, Rockville, Md.) were cultured in DMEM supplemented with 10% FBS inoculated at 10^4 cells/35 […] dish. […] PMA and ibuprofen were dissolved in DMSO and stored in 5% DMSO stock solutions that were diluted a 1000-fold with culture media prior to use. […] The media containing freshly added PMA and ibuprofen were changed every 60 hours for both the foci formation assay and PKCα analysis by Western blot.
as §1, §2

APPs [2] = conditions: 10 mg/kg P.O. bid, 7 days
Description: as §2
(§4) Male Sprague-Dawley rats (12 month) were obtained from Harlan-Sprague-Dawley, Inc. (Indianapolis, Ind.) and housed under controlled conditions of temperature humidity and light/dark cycle. […] Rat blood, brain and 50 μl of cerebrospinal fluid were collected and stored at -70° C. for APPs and PKC analysis by Western blotting. Rat stomach and duodenum were collected for the quantitation of gastroduodenal lesions.
The cytosolic and membrane fractions were obtained by differential centrifugation of rat brain tissue treated by ibuprofen. […]

[3] = test system: APPs secretion by NIH 3T3 cell lines; conditions: 50 μM; for Density of APPs band: 20 h culture, n = 2, mean ± S.D.
rat stomach and duodenum = assay: Gastric ulcer index / gastroduodenal lesions in rat; assay type: in vivo; conditions: rat, in vivo
Description: as §4
The rat stomach and first 12 cm of the duodenum were opened and carefully shed with saline to remove any residual debris and fixed in 10% buffered formaldehyde. Tissues were examined macroscopically (×10) for lesions and hemorrhages. The evaluation of lesions or hemorrhages was based on the ulcer index (UI) reported by Leyck et al. (1985) and expressed as the sum total of lesions per treatment. The scoring units used ranged from 0 to 5, where zero represents no macroscopically visible lesions; 1 represents one to three small ulcers less than 4 mm; 2 represents more than three small ulcers; 3 represents ulcer hemorrhages with several small ulcers; 4 represents large (>4 mm) ulcers; 5 indicates tissue perforation.

NIH 3T3 cells = assay: Foci formation assay, inhibition of PMA induced neoplastic transformation of NIH 3T3 cells; assay type: cell-based; conditions: PMA 0.02 μg/ml, 2% FBS; for inhibition of PMA induced foci formation / neoplastic transformation: 6 weeks, ibuprofen 10 or 100 μg/ml
Description: as §3
Subsequent to washing with a tris/ saline buffer, the cells were stained with a solution of 4% aqueous Giemsa stain in phosphate buffer (pH 7.0). Foci of transformed cells were then visible by eye due to their high local density and verified by under light microscopy.

PKC .xi. = conditions: cytosolic or membranous fractions
Description: as §1, §2, §4
(§5) Following separation of cytosolic or membrane proteins of rat brain protein by SDS-polyacrylamide gel electrophoresis, the proteins were transfer to nitrocellular membranes. The membranes were then probed for presence of PKCs using polyclonal antibodies against PKC α, βII, θ, ε, .xi., or γ.

PKC α = test system: PKC α
Description: as §1, §2, §4, §5

PKC βII = test system: PKC βII
Description: as §1, §2, §4, §5

PKC γ = conditions: cytosolic or membranous fractions
Description: as §1, §2, §4, §5

PKC ε = conditions: cytosolic or membranous fractions
Description: as §1, §2, §4, §5

PKC θ = conditions: cytosolic or membranous fractions
Description: as §1, §2, §4, §5

risk of AD = conditions: in vivo; cited from earlier work
cyclooxygenase = conditions: cited from earlier work
[4] = Chiral inversion of R- to S-ibuprofen in culture (HPLC); assay type: in vitro ADME; conditions: NIH 3T3 culture
Description: The concentration of the enantiomers of ibuprofen in cell culture media was determined by an HPLC procedure previously described for the enantiomers of ketoprofen (Grubb et al., 1996). The HPLC column consisted of a 5 μm (S,S)-Whelk-O1 stationary phase (250 mm×4.6 mm; Regis Technologies, Morton Grove, Ill.) eluted with a mobile phase of hexane/isopropyl alcohol/acetic acid (98/2/0.05) flowing at 0.8 ml/ min. […] Quantitation was achieved using peak area ratios with R-flurbiprofen as internal standard and ultraviolet absorbance at 254 nm. The limit of quantitation was set at 100 ng/ml.

AD progression = conditions: 6-month, double-blind, placebo-controlled; cited from earlier work
animal tumors = conditions: in vivo; cited from earlier work
APP = conditions: via activation of PKC; cited from earlier work
[5] = membrane fraction, 10 mg/kg bid 7 days, n = 4 mean ± S.D.

Structure (SMILES): CC(C)Cc1ccc(C(C)C(=O)O)cc1 (racemic) [RS-ibuprofen]
- Density of APP Bands, Cytosol (APPs [1]): 9.32 ± 5.35
- concentration inhibiting PKC mediated histone phosphorylation (PKC): 2 µM
- human blood APPs (105 kDa) (APPs (105 kDa); 1st dose (800 mg), 0 hour (before dose), n = 4, mean ± S.D.): 1.95
- duration of increased APPs (105 kDa) secretion (APPs (105 kDa); after 7 days dosing, 800 mg t.i.d. oral): 14 days
- human blood APPs (105 kDa) (APPs (105 kDa); post 1st dose (800 mg), 1 hour, n = 4, mean ± S.D.): 3.64
- human blood APPs (105 kDa) (APPs (105 kDa); post 1st dose (800 mg), 3 hours, n = 4, mean ± S.D.): 3.22
- human blood APPs (105 kDa) (APPs (105 kDa); post 7 days dose (800 mg, tid), 1 hour, n = 4, mean ± S.D.): 4.57
- human blood APPs (105 kDa) (APPs (105 kDa); post 7 days dose (800 mg, tid), 1 day, n = 4, mean ± S.D.): 6.15
- human blood APPs (105 kDa) (APPs (105 kDa); post 7 days dose (800 mg, tid), 2 days, ND = Not detectable): 4.77
- human blood APPs (105 kDa) (APPs (105 kDa); post 7 days dose (800 mg, tid), 3 days, ND = Not detectable): 4.33
- human blood APPs (105 kDa) (APPs (105 kDa); post 7 days dose (800 mg, tid), 4 days, ND = Not detectable): 3.37
- human blood APPs (105 kDa) (APPs (105 kDa); post 7 days dose (800 mg, tid), 14 days, ND = Not detectable): 3.77
- duration of increased APPs (105 kDa) secretion (APPs (105 kDa); single oral 800 mg dose): 1 days
- PKCα detectable in the membrane fraction (PKCα; 2 weeks of PMA): detectable in the membrane fraction
- inhibition of PKCα translocation from cytosol to nuclear compartments (PKCα): completely blocked
- inhibition of PKCα translocation, racemate versus enantiomers (PKCα): less potent than either of the enantiomers
- APPs secretion in rat CSF (in words) (APPs [2]): dramatically increased APPs secretion
- Density of APP Bands, CSF (APPs [2]; n = 4 mean ± S.D.): 13.63 ± 6.56
- Density of APPs band [3]: 6.073 ± 0.55
- gastropathy (in words) (rat stomach and duodenum): induced serious gastric ulcers and hemorrhage
- inhibition of PMA induced foci formation / neoplastic transformation (NIH 3T3 cells; listed as Racemic ibuprofen): dramatically decreased
- inhibition of PMA induced foci formation / neoplastic transformation (NIH 3T3 cells; listed as racemic ibuprofen): inhibit the neoplastic transformation; also recorded: substantially inhibited
- effect on PKC .xi. content (PKC .xi.): did not show a dramatic effect
- rat brain PKC α content (in words) (PKC α; 7 days of treatment): not significantly
- Density of PKC α Bands (PKC α; [5]): 13.61 ± 5.15
- rat brain PKC βII content (in words) (PKC βII; 7 days of treatment): not significantly
- Density of PKC βII Bands (PKC βII; [5]): 8.46 ± 3.68
- effect on PKC γ content (PKC γ): did not show a dramatic effect
- effect on PKC ε content (PKC ε): did not show a dramatic effect
- effect on PKC θ content (PKC θ): did not show a dramatic effect

Structure (SMILES): CC(=O)Oc1ccccc1C(=O)O [Aspirin]
- APPs secretion (in words) ([3]; 20 h): failed to show an increased secretion of APPs
- Density of APPs band [3]: 2.92 ± 0.43
- association with decreased risk of AD (risk of AD): not associated

Structure (SMILES): CC(C)Cc1ccc([C@@H](C)C(=O)O)cc1 [R-ibuprofen]
- capability to inhibit cyclooxygenase (in words) (cyclooxygenase): very weak capability to inhibit cyclooxygenase
- concentration inhibiting PKC mediated histone phosphorylation (PKC): 1 µM
- inhibition at 20 µM (PKC; read-out: maximal inhibition of PKC activity, at 20 μM): 53%
- inhibition of PKCα translocation compared to antipode (PKCα; 4 hours PMA): more effective than its antipode
- inhibition of PKCα translocation from cytosol to nuclear compartments (PKCα): clearly modulated the time dependent intracellular redistribution of PKCα
- inhibition of PKCα translocation, racemate versus enantiomers (PKCα): more effective than the racemic mixture
- inversion of R- to S-ibuprofen [4]: No inversion of R- to S-ibuprofen was detectable; also recorded: did not occur
- gastric ulcers, incidence (rat stomach and duodenum): one small gastric ulcer in 2 out of 4 rats
- ulcers larger than 4 mm (rat stomach and duodenum): no ulcer larger than 4 mm
- inhibition of foci formation, enantiomers compared to racemate (NIH 3T3 cells): more pronounced than that of the racemate; also recorded: more effective than the racemic mixture
- inhibition of PMA induced foci formation / neoplastic transformation (NIH 3T3 cells): dramatically decreased; also recorded: inhibit the neoplastic transformation; also recorded: substantially inhibited

Structure (SMILES): CC(=O)Nc1ccc(O)cc1 [acetaminophen]
- association with decreased risk of AD (risk of AD): not associated

Structure (SMILES): COc1ccc2c(c1)c(CC(=O)O)c(C)n2C(=O)c1ccc(Cl)cc1 [indomethacin]
- slowing AD progression (AD progression): very effective in slowing AD progression

Structure (SMILES): N[C@H](Cc1ccc(N(CCCl)CCCl)cc1)C(=O)O [medphalan]
- activity against certain animal tumors versus melphalan (animal tumors): less active

Structure (SMILES): CCCCCCCCCCCCCC(=O)O[C@@H]1[C@@H](C)[C@@]2(O)[C@@H](C=C(CO)C[C@]3(O)C(=O)C(C)=C[C@@H]23)[C@@H]2C(C)(C)[C@]12OC(C)=O [phorbol ester]
- formation of APPs (APP): increase the formation of APPs
- production of amyloidogenic fragments containing Aβ and Aβ (APP): reduce the production

Source: US6255347A (priority 1997, dated 2001)
